Source: PubChem BioAssay AID1963863 (Molecular Pharmacology Branch, DTP, NCI, 2024)

Test system: 931267-113-T-J1-PDC KRAS spheroid with HUVEC/MSC, viability
Experiment: Anticancer human tumor 931267-113-T-J1-PDC patient-derived colon adenocarcinoma cell line growth inhibition [KRAS2]
Settings: for IC50: curve of first compound; for viability, T/C: stronger effect = lower value
Outline: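 Combination screen of spheroid viability in tumor-cell co-cultures with endothelial (HUVEC) and mesenchymal stem cell stroma. Each agent was tested in half-log dilutions, topping at clinical Cmax or at 10 microM without a known Cmax.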

[1] = second compound 0.1 µM, first compound 0.0316 µM
[2] = second compound 0.316 µM, first compound 0.0316 µM
[3] = second compound 1 µM, first compound 0.0316 µM
[4] = second compound 3.16 µM, first compound 0.0316 µM
[5] = second compound 10 µM, first compound 0.0316 µM
[6] = second compound 0.1 µM, first compound 0.1 µM
[7] = second compound 0.1 µM, first compound 0.316 µM
[8] = second compound 0.1 µM, first compound 1 µM
[9] = second compound 0.1 µM, first compound 3.16 µM
[10] = second compound 0.1 µM, first compound 10 µM
[11] = second compound 0.316 µM, first compound 0.1 µM
[12] = second compound 0.316 µM, first compound 0.316 µM
[13] = second compound 0.316 µM, first compound 1 µM
[14] = second compound 0.316 µM, first compound 3.16 µM
[15] = second compound 0.316 µM, first compound 10 µM
[16] = second compound 1 µM, first compound 0.1 µM
[17] = second compound 1 µM, first compound 0.316 µM
[18] = second compound 1 µM, first compound 1 µM
[19] = second compound 1 µM, first compound 3.16 µM
[20] = second compound 1 µM, first compound 10 µM
[21] = second compound 3.16 µM, first compound 0.1 µM
[22] = second compound 3.16 µM, first compound 0.316 µM
[23] = second compound 3.16 µM, first compound 1 µM
[24] = second compound 3.16 µM, first compound 3.16 µM
[25] = second compound 3.16 µM, first compound 10 µM
[26] = second compound 10 µM, first compound 0.1 µM
[27] = second compound 10 µM, first compound 0.316 µM
[28] = second compound 10 µM, first compound 1 µM
[29] = second compound 10 µM, first compound 3.16 µM
[30] = second compound 10 µM, first compound 10 µM
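Further: compound exposure lasted 7 days before the readout.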
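Wherever viability, T/C is given: 100% = DMSO vehicle control viability.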

`CC(=O)Nc1cccc(-n2c(=O)n(C3CC3)c(=O)c3c(Nc4ccc(I)cc4F)n(C)c(=O)c(C)c32)c1` + CNCc1ccccc1-c1csc(C(C)Nc2nc(C)nc3cc(OC)c(OC)cc23)c1 was tested, and the IC50 (second compound 0.1 µM) was 9.09 nM, the IC50 (second compound 0.316 µM) was 6.7 nM and the IC50 (second compound 1 µM) was < 0.1 nM. The IC50 (second compound 3.16 µM) was < 0.1 nM, the IC50 (second compound 10 µM) was < 0.1 nM and the viability, T/C (second compound 0.1 µM, first compound 0.0001 µM) was 86.5%. For the same compound, the viability, T/C (second compound 0.1 µM, first compound 0.000316 µM) was 89.1%, the viability, T/C (second compound 0.1 µM, first compound 0.001 µM) was 75.8% and the viability, T/C (second compound 0.1 µM, first compound 0.00316 µM) was 59.7%. For the same compound, the viability, T/C (second compound 0.1 µM, first compound 0.01 µM) was 56%, the viability, T/C [1] was 14.1% and the viability, T/C (second compound 0.316 µM, first compound 0.0001 µM) was 91.8%. For the same compound, the viability, T/C (second compound 0.316 µM, first compound 0.000316 µM) was 111%, the viability, T/C (second compound 0.316 µM, first compound 0.001 µM) was 83.3% and the viability, T/C (second compound 0.316 µM, first compound 0.00316 µM) was 60.8%. The viability, T/C (second compound 0.316 µM, first compound 0.01 µM) was 47.8%, the viability, T/C [2] was 25.3% and the viability, T/C (second compound 1 µM, first compound 0.0001 µM) was 50.4%. It also gave a viability, T/C (second compound 1 µM, first compound 0.000316 µM) of 17%, a viability, T/C (second compound 1 µM, first compound 0.001 µM) of 1.23% and a viability, T/C (second compound 1 µM, first compound 0.00316 µM) of 10.3%. The viability, T/C (second compound 1 µM, first compound 0.01 µM) was 2.02%, the viability, T/C [3] was 1.26% and the viability, T/C (second compound 3.16 µM, first compound 0.0001 µM) was 1.06%. For the same compound, the viability, T/C (second compound 3.16 µM, first compound 0.000316 µM) was 0.32%, the viability, T/C (second compound 3.16 µM, first compound 0.001 µM) was 0.34% and the viability, T/C (second compound 3.16 µM, first compound 0.00316 µM) was 0.19%. It also gave a viability, T/C (second compound 3.16 µM, first compound 0.01 µM) of 0.19%, a viability, T/C [4] of 0.41% and a viability, T/C (second compound 10 µM, first compound 0.0001 µM) of 0.57%. It also gave a viability, T/C (second compound 10 µM, first compound 0.000316 µM) of 0.16%, a viability, T/C (second compound 10 µM, first compound 0.001 µM) of 0.14% and a viability, T/C (second compound 10 µM, first compound 0.00316 µM) of 0.13%. For the same compound, the viability, T/C (second compound 10 µM, first compound 0.01 µM) was 0.15% and the viability, T/C [5] was 2.55%.

`COC(=O)c1ccc2c(C(=Nc3ccc(N(C)C(=O)CN4CCN(C)CC4)cc3)c3ccccc3)c(O)[nH]c2c1` + CNCc1ccccc1-c1csc(C(C)Nc2nc(C)nc3cc(OC)c(OC)cc23)c1 was tested, and the IC50 (second compound 0.1 µM) was 480 nM, the IC50 (second compound 0.316 µM) was 356 nM and the IC50 (second compound 1 µM) was 452 nM. The IC50 (second compound 3.16 µM) was < 31.6 nM, the IC50 (second compound 10 µM) was < 31.6 nM and the viability, T/C [1] was 65.7%. The viability, T/C [6] was 81%, the viability, T/C [7] was 58% and the viability, T/C [8] was 31%. For the same compound, the viability, T/C [9] was 0.36%, the viability, T/C [10] was 0.19% and the viability, T/C [2] was 76.5%. The viability, T/C [11] was 86.1%, the viability, T/C [12] was 55.6% and the viability, T/C [13] was 2.09%. It also gave a viability, T/C [14] of 0.23%, a viability, T/C [15] of 0.33% and a viability, T/C [3] of 84.5%. For the same compound, the viability, T/C [16] was 99.3%, the viability, T/C [17] was 72% and the viability, T/C [18] was 2.29%. For the same compound, the viability, T/C [19] was 0.7%, the viability, T/C [20] was 0.32% and the viability, T/C [4] was 0.3%. For the same compound, the viability, T/C [21] was 0.33%, the viability, T/C [22] was 0.17% and the viability, T/C [23] was 0.16%. It also gave a viability, T/C [24] of 0.15%, a viability, T/C [25] of 0.2% and a viability, T/C [5] of 0.24%. It also gave a viability, T/C [26] of 0.28%, a viability, T/C [27] of 0.13% and a viability, T/C [28] of 0.12%. It also gave a viability, T/C [29] of 0.14% and a viability, T/C [30] of 0.29%.

For `COc1cc(Nc2ncc3c(n2)-c2ccc(Cl)cc2C(c2c(F)cccc2OC)=NC3)ccc1C(=O)O` + CNCc1ccccc1-c1csc(C(C)Nc2nc(C)nc3cc(OC)c(OC)cc23)c1, the IC50 (second compound 0.1 µM) was > 10000 nM, the IC50 (second compound 0.316 µM) was > 10000 nM and the IC50 (second compound 1 µM) was < 31.6 nM. For the same compound, the IC50 (second compound 3.16 µM) was < 31.6 nM, the IC50 (second compound 10 µM) was < 31.6 nM and the viability, T/C [1] was 78.9%. It also gave a viability, T/C [6] of 87%, a viability, T/C [7] of 85.5% and a viability, T/C [8] of 72.3%. For the same compound, the viability, T/C [9] was 87.4%, the viability, T/C [10] was 62.1% and the viability, T/C [2] was 122%. The viability, T/C [11] was 106%, the viability, T/C [12] was 154% and the viability, T/C [13] was 86.6%. It also gave a viability, T/C [14] of 77.5%, a viability, T/C [15] of 64.2% and a viability, T/C [3] of 18.7%. The viability, T/C [16] was 36.5%, the viability, T/C [17] was 18.4% and the viability, T/C [18] was 26%. The viability, T/C [19] was 25.9%, the viability, T/C [20] was 25.6% and the viability, T/C [4] was 0.23%. The viability, T/C [21] was 0.31%, the viability, T/C [22] was 0.33% and the viability, T/C [23] was 0.21%. For the same compound, the viability, T/C [24] was 0.2%, the viability, T/C [25] was 0.35% and the viability, T/C [5] was 0.26%. It also gave a viability, T/C [26] of 0.16%, a viability, T/C [27] of 0.23% and a viability, T/C [28] of 0.16%. The viability, T/C [29] was 0.16% and the viability, T/C [30] was 0.31%.

`O=C(c1cc(Cc2n[nH]c(=O)c3ccccc23)ccc1F)N1CCN(C(=O)C2CC2)CC1` + CNCc1ccccc1-c1csc(C(C)Nc2nc(C)nc3cc(OC)c(OC)cc23)c1 was tested, and the IC50 (second compound 0.1 µM) was > 10000 nM, the IC50 (second compound 0.316 µM) was > 10000 nM and the IC50 (second compound 1 µM) was > 10000 nM. The IC50 (second compound 3.16 µM) was < 31.6 nM, the IC50 (second compound 10 µM) was < 31.6 nM and the viability, T/C [1] was 98.8%. For the same compound, the viability, T/C [6] was 100%, the viability, T/C [7] was 86.8% and the viability, T/C [8] was 85.9%. For the same compound, the viability, T/C [9] was 61.9%, the viability, T/C [10] was 72.2% and the viability, T/C [2] was 106%. For the same compound, the viability, T/C [11] was 88.5%, the viability, T/C [12] was 98% and the viability, T/C [13] was 88.5%. For the same compound, the viability, T/C [14] was 82.7%, the viability, T/C [15] was 80% and the viability, T/C [3] was 114%. The viability, T/C [16] was 113%, the viability, T/C [17] was 108% and the viability, T/C [18] was 96.6%. It also gave a viability, T/C [19] of 112%, a viability, T/C [20] of 75.6% and a viability, T/C [4] of 0.55%. For the same compound, the viability, T/C [21] was 0.34%, the viability, T/C [22] was 0.4% and the viability, T/C [23] was 0.47%. The viability, T/C [24] was 0.43%, the viability, T/C [25] was 0.38% and the viability, T/C [5] was 0.16%. The viability, T/C [26] was 0.2%, the viability, T/C [27] was 0.21% and the viability, T/C [28] was 0.61%. The viability, T/C [29] was 0.27% and the viability, T/C [30] was 0.23%.
